Source: PubChem BioAssay (NCI)
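How tested: cells in 96-well plates exposed to compound for 48 hours at five concentrations. TGI marks complete inhibition of growth.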

Legend:
Experiment in all cases: NCI tumour cell line growth inhibition, 48 h
OVCAR-8 ovarian = tested on: OVCAR-8 ovarian
SN12C renal = tested on: SN12C renal
NCI-H522 lung = tested on: NCI-H522 lung
OVCAR-5 ovarian = tested on: OVCAR-5 ovarian
UO-31 renal = tested on: UO-31 renal
U251 CNS = tested on: U251 CNS
SNB-78 CNS = tested on: SNB-78 CNS
SW-620 colon = tested on: SW-620 colon
HCT-15 colon = tested on: HCT-15 colon
HCT-116 colon = tested on: HCT-116 colon
RPMI-8226 leukemia = tested on: RPMI-8226 leukemia
HT29 colon = tested on: HT29 colon
CAKI-1 renal = tested on: CAKI-1 renal
SF-268 CNS = tested on: SF-268 CNS
OVCAR-4 ovarian = tested on: OVCAR-4 ovarian
A498 renal = tested on: A498 renal
XF 498 CNS = tested on: XF 498 CNS
LOX IMVI melanoma = tested on: LOX IMVI melanoma
SF-295 CNS = tested on: SF-295 CNS
COLO 205 colon = tested on: COLO 205 colon
TK-10 renal = tested on: TK-10 renal
OVCAR-3 ovarian = tested on: OVCAR-3 ovarian
RXF 393 renal = tested on: RXF 393 renal
786-0 renal = tested on: 786-0 renal
DMS 273 small cell lung = tested on: DMS 273 small cell lung
HCC-2998 colon = tested on: HCC-2998 colon
IGROV1 ovarian = tested on: IGROV1 ovarian
HOP-62 NSCLC = tested on: HOP-62 NSCLC
UACC-62 melanoma = tested on: UACC-62 melanoma
SK-MEL-28 melanoma = tested on: SK-MEL-28 melanoma
NCI-H23 lung = tested on: NCI-H23 lung
A549 NSCLC = tested on: A549 NSCLC
ACHN renal = tested on: ACHN renal
LXFL 529 NSCLC = tested on: LXFL 529 NSCLC
SK-MEL-2 melanoma = tested on: SK-MEL-2 melanoma
DLD-1 colon = tested on: DLD-1 colon
EKVX NSCLC = tested on: EKVX NSCLC
KM20L2 colon = tested on: KM20L2 colon
HOP-18 NSCLC = tested on: HOP-18 NSCLC
DMS 114 small cell lung = tested on: DMS 114 small cell lung
SK-MEL-5 melanoma = tested on: SK-MEL-5 melanoma
SNB-75 CNS = tested on: SNB-75 CNS
HL-60(TB) leukemia = tested on: HL-60(TB) leukemia
M14 melanoma = tested on: M14 melanoma
UACC-257 melanoma = tested on: UACC-257 melanoma
HOP-92 NSCLC = tested on: HOP-92 NSCLC
SK-OV-3 ovarian = tested on: SK-OV-3 ovarian
MALME-3M melanoma = tested on: MALME-3M melanoma
M19-MEL melanoma = tested on: M19-MEL melanoma
SNB-19 CNS = tested on: SNB-19 CNS
NCI-H226 lung = tested on: NCI-H226 lung
CCRF-CEM leukemia = tested on: CCRF-CEM leukemia
NCI-H460 lung = tested on: NCI-H460 lung
KM12 colon = tested on: KM12 colon
K-562 leukemia = tested on: K-562 leukemia
SF-539 CNS = tested on: SF-539 CNS

`C/C(=N/Nc1ccc([N+](=O)[O-])cc1[N+](=O)[O-])C(CC(C(=O)Nc1ccccc1C)/C(C)=N\Nc1ccc([N+](=O)[O-])cc1[N+](=O)[O-])C(=O)Nc1ccccc1C` (stereo unspecified) was tested. Which TGI (OVCAR-8 ovarian) did it give?
The TGI was 14 µM.

And the TGI (SN12C renal)?
Its TGI is 12.7 µM.

And the TGI (NCI-H522 lung)?
Its TGI is 41.8 µM.

What about the TGI (OVCAR-5 ovarian) of the same molecule?
The TGI was 31 µM.

What about the TGI (UO-31 renal) of the same molecule?
Its TGI is 39.9 µM.

And the TGI (U251 CNS)?
Its TGI is 14 µM.

And the TGI (SNB-78 CNS)?
The TGI was 52.2 µM.

And the TGI (SW-620 colon)?
The TGI was 42.3 µM.

What about the TGI (HCT-15 colon) of the same molecule?
The TGI was greater than 63.5 µM.

What about the TGI (HCT-116 colon) of the same molecule?
The TGI was 26.4 µM.

What about the TGI (RPMI-8226 leukemia) of the same molecule?
The TGI was greater than 69.3 µM.

What about the TGI (HT29 colon) of the same molecule?
The TGI was 28 µM.

What about the TGI (CAKI-1 renal) of the same molecule?
The TGI was 30 µM.

And the TGI (SF-268 CNS)?
Its TGI is 23.7 µM.

What about the TGI (OVCAR-4 ovarian) of the same molecule?
The TGI was 15.9 µM.

And the TGI (A498 renal)?
The TGI was 34 µM.

And the TGI (XF 498 CNS)?
The TGI was 33.8 µM.

What about the TGI (LOX IMVI melanoma) of the same molecule?
Its TGI is 36 µM.

What about the TGI (SF-295 CNS) of the same molecule?
Its TGI is 33.9 µM.

What about the TGI (COLO 205 colon) of the same molecule?
Its TGI is 25.4 µM.

And the TGI (TK-10 renal)?
The TGI was 60.1 µM.

What about the TGI (OVCAR-3 ovarian) of the same molecule?
Its TGI is 22.4 µM.

And the TGI (RXF 393 renal)?
Its TGI is 24.3 µM.

And the TGI (786-0 renal)?
The TGI was 41.3 µM.

What about the TGI (DMS 273 small cell lung) of the same molecule?
The TGI was 41.7 µM.

And the TGI (HCC-2998 colon)?
The TGI was 60.8 µM.

And the TGI (IGROV1 ovarian)?
Its TGI is 32.1 µM.

And the TGI (HOP-62 NSCLC)?
Its TGI is 30.6 µM.

What about the TGI (UACC-62 melanoma) of the same molecule?
Its TGI is 69.4 µM.

What about the TGI (SK-MEL-28 melanoma) of the same molecule?
The TGI was 51.1 µM.

What about the TGI (NCI-H23 lung) of the same molecule?
The TGI was 25.5 µM.

And the TGI (A549 NSCLC)?
Its TGI is 64.6 µM.

What about the TGI (ACHN renal) of the same molecule?
Its TGI is greater than 49.6 µM.

What about the TGI (LXFL 529 NSCLC) of the same molecule?
Its TGI is 27.9 µM.

And the TGI (SK-MEL-2 melanoma)?
Its TGI is 28.2 µM.

And the TGI (DLD-1 colon)?
Its TGI is greater than 100 µM.

What about the TGI (EKVX NSCLC) of the same molecule?
The TGI was 38 µM.

What about the TGI (KM20L2 colon) of the same molecule?
The TGI was greater than 88.3 µM.

And the TGI (HOP-18 NSCLC)?
Its TGI is 28.9 µM.

And the TGI (DMS 114 small cell lung)?
The TGI was 17.7 µM.

And the TGI (SK-MEL-5 melanoma)?
Its TGI is 36.8 µM.

And the TGI (SNB-75 CNS)?
The TGI was 29.4 µM.

What about the TGI (HL-60(TB) leukemia) of the same molecule?
The TGI was greater than 100 µM.

And the TGI (M14 melanoma)?
The TGI was 46 µM.

What about the TGI (UACC-257 melanoma) of the same molecule?
Its TGI is 43.9 µM.

What about the TGI (HOP-92 NSCLC) of the same molecule?
Its TGI is 15.5 µM.

And the TGI (SK-OV-3 ovarian)?
The TGI was greater than 61.2 µM.

And the TGI (MALME-3M melanoma)?
Its TGI is greater than 63.1 µM.

What about the TGI (M19-MEL melanoma) of the same molecule?
The TGI was 28.1 µM.

What about the TGI (SNB-19 CNS) of the same molecule?
The TGI was 32 µM.

What about the TGI (NCI-H226 lung) of the same molecule?
The TGI was 19.3 µM.

What about the TGI (CCRF-CEM leukemia) of the same molecule?
The TGI was greater than 100 µM.

What about the TGI (NCI-H460 lung) of the same molecule?
The TGI was 36.4 µM.

And the TGI (KM12 colon)?
Its TGI is 38.5 µM.

What about the TGI (K-562 leukemia) of the same molecule?
The TGI was greater than 100 µM.

And the TGI (SF-539 CNS)?
Its TGI is 25.8 µM.
